Test results from patent US10294202B2, “Pyrrolidinones as herbicides” (FMC Corporation, priority 2013, dated 2019).

Tests used:
sedge, umbrella = assay: Test C flooded paddy test; assay type: in vivo, Cyperus difformis; conditions: Flood
Summary of the method: (§1)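 Plants grown to the 2-leaf stage; pots flooded to 3 cm above soil and compound applied directly into the paddy water, depth kept throughout. Greenhouse 13 to 15 days, then visual rating vs untreated controls on 0–100 scale (0 no effect, 100 complete control); dash means no result.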

barnyardgrass = assay: Test C flooded paddy test; assay type: in vivo, Echinochloa crus-galli; conditions: Flood
Summary of the method: as §1

rice = assay: Test C flooded paddy test; assay type: in vivo, Oryza sativa; conditions: Flood
Summary of the method: as §1

galium = assay: Test A postemergence herbicide test; assay type: in vivo, Galium aparine
Summary of the method: (§2)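 Injury was rated visually about 10 days after treatment on a 0 (no effect) to 100 (complete control) scale, compared with untreated plants. Test chemicals were sprayed postemergence onto greenhouse plants 2–10 cm high at one to two leaves, grown in a loam–sand blend.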

kochia = assay: Test A pre-/postemergence herbicide test; assay type: in vivo, Kochia scoparia
Summary of the method: (§3)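 Visual 0–100 ratings (100 = complete control) made about 10 days after treatment, greenhouse-held plants compared with untreated controls. Treatments: postemergence sprays on one- to two-leaf plants (2–10 cm tall) and preemergence directed soil sprays after planting in loam–sand, chemicals formulated in non-phytotoxic solvent containing surfactant.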

ragweed = assay: Test A pre-/postemergence herbicide test; assay type: in vivo, Ambrosia elatior
Summary of the method: as §3

ryegrass, Italian = assay: Test A pre-/postemergence herbicide test; assay type: in vivo, Lolium multiflorum
Summary of the method: as §3

blackgrass = assay: Test A postemergence herbicide test; assay type: in vivo, Alopecurus myosuroides
Summary of the method: as §2

[1] = 31 g ai/ha, scale of 0 to 100 where 0 is no effect and 100 is complete control, 13 to 15 days
[2] = 62 g ai/ha, scale of 0 to 100 where 0 is no effect and 100 is complete control, 13 to 15 days
[3] = 125 g ai/ha, scale of 0 to 100 where 0 is no effect and 100 is complete control, 13 to 15 days
[4] = 125 g ai/ha, visual rating on 0 to 100 scale (0 no effect, 100 complete control), approx. 10 days
[5] = 500 g ai/ha, 0 to 100 scale (0 no effect, 100 complete control)
[6] = Postemergence, 125 g ai/ha, visual rating on 0 to 100 scale (0 no effect, 100 complete control), approx. 10 days
[7] = Postemergence, 500 g ai/ha, 0 to 100 scale (0 no effect, 100 complete control)
[8] = Preemergence, 125 g ai/ha, 0 to 100 scale where 0 is no effect and 100 is complete control
[9] = Preemergence, 500 g ai/ha, visual rating on 0 to 100 scale (0 no effect, 100 complete control)
[10] = 125 g ai/ha, 0 to 100 scale, 0 is no effect, 100 is complete control
[11] = 125 g ai/ha, visual rating, 0 to 100 scale, 0 no effect, 100 complete control, approximately 10 days, preemergence
[12] = Postemergence, 125 g ai/ha, 0 to 100 scale, 0 is no effect, 100 is complete control
[13] = preemergence, 500 g ai/ha, 0 to 100 scale, 0 is no effect and 100 is complete control
[14] = 1000 g ai/ha, 0 to 100 scale (0 no effect, 100 complete control)
[15] = Postemergence, 1000 g ai/ha, 0 to 100 scale (0 no effect, 100 complete control)
[16] = preemergence, 1000 g ai/ha, 0 to 100 scale

SMILES	Plant response rating, Galium (galium; [4])	Plant response rating, Galium (galium; [5])	Plant response rating, Kochia (kochia; [6])	Plant response rating, Kochia (kochia; [7])	Plant response rating, Kochia (kochia; [8])	Kochia plant response rating (kochia; [9])	Plant response rating, Ragweed (ragweed; [6])	Plant response rating, Ragweed (ragweed; [7])	Plant response rating, Ragweed (ragweed; [8])	Ragweed plant response rating (ragweed; [9])	Plant response rating, Ryegrass, Italian (ryegrass, Italian; [6])	Plant response rating, Ryegrass, Italian (ryegrass, Italian; [7])	Plant response rating, Ryegrass, Italian (ryegrass, Italian; [8])	Ryegrass, Italian plant response rating (ryegrass, Italian; [9])	Plant response rating, Blackgrass (blackgrass; [4])	Plant response rating, Blackgrass (blackgrass; [5])	also measured
O=C1NCC(c2cccc(C(F)(F)F)c2)C1C(=O)Nc1ccccc1F (racemic) [Compound 3]																	Plant response rating, Sedge, Umbrella (sedge, umbrella; [1]): 0; Plant response rating, Sedge, Umbrella (sedge, umbrella; [2]): 0; Plant response rating, Sedge, Umbrella (sedge, umbrella; [3]): 0; Plant response rating, Sedge, Umbrella (sedge, umbrella; 250 g ai/ha, scale 0 to 100): 50; Plant response rating, Barnyardgrass (barnyardgrass; [1]): 0; Plant response rating, Barnyardgrass (barnyardgrass; [2]): 20; Plant response rating, Barnyardgrass (barnyardgrass; [3]): 40; Plant response rating, Barnyardgrass (barnyardgrass; 250 g ai/ha, scale 0 to 100): 55; Plant response rating, Rice (rice; [1]): 0; Plant response rating, Rice (rice; [2]): 0; Plant response rating, Rice (rice; [3]): 0; Plant response rating, Rice (rice; 250 g ai/ha, scale 0 to 100): 0
O=C1NCC(c2ccc(F)c(F)c2)C1C(=O)Nc1cccc(F)c1 (racemic) [Compound 12]																	Plant response rating, Sedge, Umbrella (sedge, umbrella; [1]): 0; Plant response rating, Sedge, Umbrella (sedge, umbrella; [2]): 0; Plant response rating, Sedge, Umbrella (sedge, umbrella; [3]): 0; Plant response rating, Sedge, Umbrella (sedge, umbrella; 250 g ai/ha, scale 0 to 100): 0; Plant response rating, Barnyardgrass (barnyardgrass; [1]): 0; Plant response rating, Barnyardgrass (barnyardgrass; [2]): 0; Plant response rating, Barnyardgrass (barnyardgrass; [3]): 0; Plant response rating, Barnyardgrass (barnyardgrass; 250 g ai/ha, scale 0 to 100): 65; Plant response rating, Rice (rice; [1]): 0; Plant response rating, Rice (rice; [2]): 0; Plant response rating, Rice (rice; [3]): 0; Plant response rating, Rice (rice; 250 g ai/ha, scale 0 to 100): 0
O=C1NCC(c2cccc(C(F)(F)F)c2)C1C(=O)Nc1cccc(Cl)c1F (centres unmarked) [Compound 316]	20	40	30	40	0	30	20	30	20	30	20	30	20	50	30	40	
O=C1NCC(c2ccc(C(F)(F)F)cc2)C1C(=O)Nc1ccccc1Cl (centres unmarked) [Compound 233]																	Plant response rating, Galium (galium; [10]): 20; Galium plant response rating (0 to 100 scale, 0 is no effect, 100 is complete control) (galium; 500 g ai/ha): 50; Plant response rating, Kochia (kochia; [11]): 50; Plant response rating, Kochia (kochia; [12]): 60; Kochia plant response rating (0 to 100 scale, 0 is no effect, 100 is complete control) (kochia; Postemergence, 500 g ai/ha): 80; Plant response rating, Kochia (kochia; [13]): 80; Plant response rating, Ragweed (ragweed; [11]): 40; Plant response rating, Ragweed (ragweed; [12]): 30; Ragweed plant response rating (0 to 100 scale, 0 is no effect, 100 is complete control) (ragweed; Postemergence, 500 g ai/ha): 50; Plant response rating, Ragweed (ragweed; [13]): 50; Plant response rating, Ryegrass, Italian (ryegrass, Italian; [11]): 30; Plant response rating, Ryegrass, Italian (ryegrass, Italian; [12]): 20; Ryegrass, Italian plant response rating (0 to 100 scale, 0 is no effect, 100 is complete control) (ryegrass, Italian; Postemergence, 500 g ai/ha): 40; Plant response rating, Ryegrass, Italian (ryegrass, Italian; [13]): 60; Plant response rating, Blackgrass (blackgrass; [10]): 60; Blackgrass plant response rating (0 to 100 scale, 0 is no effect, 100 is complete control) (blackgrass; 500 g ai/ha): 60
O=C1NCC(c2cccc(Br)c2)C1C(=O)Nc1ccccc1F (centres unmarked) [Compound 307]	0	0	0	0	0	0	0	0	0	0	0	0	0	0	30	70	
CN1CC(c2ccc(C(F)(F)F)cc2)C(C(=O)Nc2ccccc2F)C1=O (centres unmarked) [Compound 304]	20	60	10	80		70	0	20	0		50	50	0	0	50	70	
O=C1NCC(c2cccc(OC(F)F)c2)C1C(=O)Nc1ccc(F)c(F)c1F (centres unmarked) [Compound 325]	50	60	60	80	70	80	20	60	30	50	30	50	30	50	50	50	
O=C(Nc1ccccc1F)C1C(=S)NCC1c1cccc(C(F)(F)F)c1 (centres unmarked) [Compound 274]							0				0						Plant response rating, Galium (galium; [14]): 0; Plant response rating, Kochia (kochia; [15]): 40; Plant response rating, Kochia (kochia; [16]): 40; Plant response rating, Ragweed (ragweed; [15]): 30; Plant response rating, Ragweed (ragweed; [16]): 20; Plant response rating, Ryegrass, Italian (ryegrass, Italian; [15]): 20; Plant response rating, Ryegrass, Italian (ryegrass, Italian; [16]): 40; Plant response rating, Blackgrass (blackgrass; [14]): 50
O=C1NCC(c2cccc(C(F)(F)F)c2)C1C(=O)Nc1ccc(F)c(F)c1F (centres unmarked) [Compound 315]	40	50	50	70	40	60	20	40	20	30	20	50	40	70	40	50	
